The values below come from patent publication US11090318B2, “Wound healing promoter” (NAHLS CORPORATION CO., LTD., priority 2017, dated 2021).

For assay [1], the system named is Mouse fetus-derived fibroblasts. The assay can be described thus: Gene expression in fibroblasts with or without TGF-β (real-time PCR). In kind it is cell-based. The following applies: for PDLIM2 gene expression: 10 μg/mL, FIG. 6. How it is done: Mouse fetus-derived fibroblasts were spread or inoculated in a 10% FCS-containing Dulbecco's modified Eagle medium (DMEM) and cultured for 24 hours. The 10% FCS-containing DMEM was then removed, and a fresh DMEM devoid of FCS was added, followed by cultivation for further 24 hours. Next, the DMEM containing the cells was combined with Nahlsgen or D-AP6 obtained in Preparation Example 1 to a concentration of 10 μg/mL, cultured for 5 hours, further combined with TGF-β, and cultured for further 5 hours. After the cultivation, RNAs or proteins were recovered, and the quantities of MMP3, MMP9, MMP13, FGF, TGF-β, amphiregulin, PDLIM2, and hyaluronic acid (HSA2) were determined using the real-time PCR technique.
(Real-time PCR tracks product formation cycle by cycle.)

Assay [2] deals with domestic dog affected by conjunctivitis. The assay can be described thus: Eye drops in a domestic dog affected by conjunctivitis. It is filed as in vivo. The following applies: antibiotic alone by instillation twice a day for one year or longer, before preparation (6). The procedure:
The pharmaceutical preparation (6) was administered as drops to the eyes of a domestic dog affected by conjunctivitis, and 30 minutes later an antibiotic (cefmenoxime hydrochloride 0.5%) was administered as drops to the eyes. This process was repeated twice a day for 5 days.
The domestic dog had suffered from signs of dry eye syndrome and often undergone conjunctivitis resulting from bacterial infection.

The mark [3] stands for this setting: 10 μg/mL together with TGF-β, compared with TGF-β alone.
Setting [4] is: substance added alone, Nahlsgen or D-AP6 10 μg/mL.

Where a name gives a salt, the structure may show the parent alone.

`COP(=O)(CCC(N)C(=O)O)Oc1cccc(CC(=O)O)c1` (centres unmarked) [Nahlsgen]: in assay [1] (setting [3]), the “expression of FGF” value was “significantly increased the expression levels as compared with the addition of TGF-β alone”, the “expression of MMP3” value was “significantly increased the expression levels as compared with the addition of TGF-β alone”, the “expression of MMP9” value is recorded as “significantly increased the expression levels as compared with the addition of TGF-β alone” and the “expression of MMP13” value is given as “significantly increased the expression levels as compared with the addition of TGF-β alone”. Moreover, in assay [1] (setting [3]), the “expression of TGF-β” value was “significantly increased the expression levels as compared with the addition of TGF-β alone”, the expression of amphiregulin result is “significantly increased the expression levels as compared with the addition of TGF-β alone” and the “expression of hyaluronic acid” value is “significantly increased the expression levels as compared with the addition of TGF-β alone”. Also, in assay [1], the PDLIM2 gene expression result is on record as “reduced PDLIM2 gene expression”. In assay [1] (setting [4]), the “expression of FGF” value is reported as “approximately no change in the expression levels”, the “expression of MMP3” value is recorded as “approximately no change in the expression levels”, the “expression of MMP9” value is on record as “approximately no change in the expression levels” and the “expression of MMP13” value is listed as “approximately no change in the expression levels”. For the same compound, in assay [1] (setting [4]), the “expression of TGF-β” value is “approximately no change in the expression levels”, the expression of amphiregulin entry was “approximately no change in the expression levels” and the “expression of hyaluronic acid” value is recorded as “approximately no change in the expression levels”.

Take TGF-β [reference compound]: in assay [1] (setting [4]), the “expression of FGF” value is recorded as “increased the expression”, the “expression of MMP3” value is reported as “increased the expression”, the “expression of MMP9” value is “increased the expression” and the “expression of MMP13” value is “increased the expression”. For the same compound, in assay [1] (setting [4]), the “expression of TGF-β” value is “increased the expression”, the expression of amphiregulin result is on record as “increased the expression” and the “expression of hyaluronic acid” value is given as “increased the expression”.

With `N[C@H](CCCCP(=O)(O)O)C(=O)O` [D-AP6, D-2-amino-6-phosphonohexanoic acid monohydrate], in assay [1] (setting [3]), the “expression of FGF” value is “significantly increased the expression levels as compared with the addition of TGF-β alone”, the “expression of MMP3” value is listed as “significantly increased the expression levels as compared with the addition of TGF-β alone”, the “expression of MMP9” value is given as “significantly increased the expression levels as compared with the addition of TGF-β alone” and the “expression of MMP13” value is listed as “significantly increased the expression levels as compared with the addition of TGF-β alone”. Also, in assay [1] (setting [3]), the “expression of TGF-β” value is listed as “significantly increased the expression levels as compared with the addition of TGF-β alone”, the expression of amphiregulin entry is listed as “significantly increased the expression levels as compared with the addition of TGF-β alone” and the “expression of hyaluronic acid” value is recorded as “significantly increased the expression levels as compared with the addition of TGF-β alone”. For the same compound, in assay [1], the PDLIM2 gene expression result is “reduced PDLIM2 gene expression”. For the same compound, in assay [1] (setting [4]), the “expression of FGF” value is listed as “approximately no change in the expression levels”, the “expression of MMP3” value is given as “approximately no change in the expression levels”, the “expression of MMP9” value is reported as “approximately no change in the expression levels” and the “expression of MMP13” value was “approximately no change in the expression levels”. In assay [1] (setting [4]), the “expression of TGF-β” value was “approximately no change in the expression levels”, the expression of amphiregulin entry was “approximately no change in the expression levels” and the “expression of hyaluronic acid” value is on record as “approximately no change in the expression levels”.

As for `CO/N=C(\C(=O)N[C@@H]1C(=O)N2C(C(=O)O)=C(CSc3nnnn3C)CS[C@H]12)c1csc(N)n1` [antibiotic, cefmenoxime hydrochloride], the curative effects entry in assay [2] is listed as “failed to enjoy curative effects”.
